Data reported in article PMC13427755 (Nature Communications, 2026).
Like-named read-outs stand apart in the source and are kept apart here. Where a SMILES comes first, the peptide text is derived from it.

Legend:
[1] = test system: participants with IPF; format: in vivo, human
Protocol: This was a Phase 1b, randomized, double-blind, placebo-controlled, dose escalation study conducted at 6 sites in the United States, United Kingdom, Germany, and Australia (ClinicalTrials.gov: NCT05954988).
The full study protocol and statistical analysis plan are provided as Supplementary Notes 1 and 2, respectively. The completed CONSORT checklist for reporting of this study is provided as Supplementary Note 3.
Randomization was performed by interactive response system. Participants, study staff, and sponsor personnel were blinded to treatment assignment throughout the study.
(§1) Safety and tolerability assessments were performed through treatment and follow-up and included evaluation of TEAEs, concomitant medications, physical examinations, vital signs, 12-lead ECGs, clinical laboratory assessments, spirometry, and cough symptoms using the validated LCQ[22] and a cough VAS. Spirometry was performed according to American Thoracic Society (ATS) / European Respiratory Society (ERS) Task Force guidelines[46] at all clinic visits, with assessments conducted both pre-and post-dose on study drug dosing days. Study staff monitored participants’ self-administration of the study drug (the morning dose) during on-site visits, and symptoms were monitored for at least 1h.
The primary endpoint was the incidence of TEAEs reported from Day 1 through follow-up. TEAEs were coded using MedDRA (Version 26.1) and graded using the National Cancer Institute Common Terminology for Adverse Events (CTCAE) Version 5. Safety analyses included all participants who received the study drug. […] Placebo participants in each cohort were pooled for safety and biomarker analyses. No secondary endpoints were specified.

[2] = test system: participants with IPF; parameters: species or system human; details: in vivo
Protocol: as §1, with “1h. […]” for “1h.”
Exploratory biomarkers will be assessed in peripheral blood cells (as feasible), platelet rich plasma, BALF, BA samples, and deep bronchial brushings as outlined in Table 3. […]
LCQ total score is equal to the sum of the domain scores (total score range from 3 to 21) with a lower score indicating greater impairment of health status due to cough . […] If a response is not provided to a question, the domain score will be calculated as the average of the scores to the answered questions within the domain. If a subject responds to less than 80% of questions in a domain, the LCQ domain score will not be calculated and will be treated as missing during analysis. […]

[3] = 5 mg/day (2.5 mg BID) inhaled, 14 days, IPF, N = 9
[4] = 10 mg/day (5 mg BID) inhaled, 14 days, IPF, N = 9

## CC(C)[C@H](NC(=O)[C@@H](NC(=O)[C@H](Cc1ccccc1)NC(=O)[C@@H](NC(=O)[C@@H](NC(=O)[C@@H](N)Cc1ccccc1)[C@@H](C)O)[C@@H](C)O)[C@@H](C)O)C(=O)N[C@H](C(=O)O)[C@@H](C)O [LTI-03] (H-FTTFTVT-OH; N-terminus and C-terminus assumed)
[1]; [3]
  TEAE: Back pain: 1 (11.1) n (%)
  TEAE: Body temperature increased: 1 (11.1) n (%)
  TEAE: COVID-19: 1 (11.1) n (%)
  TEAE: Chest discomfort: 1 (11.1) n (%)
  TEAE: Dysgeusia: 1 (11.1) n (%)
  TEAE: Dyspnea, exertional: 1 (11.1) n (%)
  TEAE: Fatigue: 1 (11.1) n (%)
  TEAE: Hyperkaliemia: 1 (11.1) n (%)
  TEAE: Ophthalmic migraine: 1 (11.1) n (%)
  TEAE: Rhinorrhea: 1 (11.1) n (%)
[1]; 5 mg/day (2.5 mg BID) inhaled, 14 days, IPF, N = 9, CTCAE v5
  TEAEs Grade 2: 1 (11.1) n (%)
[1]; [4]
  Serious TEAEs: 1 (11.1) n (%)
  TEAE related to study drug: Dry Mouth: 1 (11.1) n (%)
  TEAE related to study drug: Hypoesthesia oral: 1 (11.1) n (%)
  TEAE related to study drug: Palpitations: 1 (11.1) n (%)
  TEAE related to study drug: Throat Irritation: 1 (11.1) n (%)
  TEAE: COVID-19: 0 n (%)
  TEAE: Cold sweat: 1 (11.1) n (%)
  TEAE: Dry mouth: 1 (11.1) n (%)
  TEAE: Hypoesthesia oral: 1 (11.1) n (%)
  TEAE: Nasopharyngitis: 1 (11.1) n (%)
  TEAE: Palpitations: 1 (11.1) n (%)
  TEAE: Productive cough: 1 (11.1) n (%)
  TEAE: Rhinorrhea: 1 (11.1) n (%)
  TEAE: Throat irritation: 1 (11.1) n (%)
  TEAE: Vertigo: 1 (11.1) n (%)
[1]; 10 mg/day (5 mg BID) inhaled, 14 days, IPF, N = 9, serious, Grade 2, unrelated
  TEAE: Post procedural fever: 1 (11.1) n (%)
[1]; in vivo
  participants with TEAE cough: 44%
[1]; pooled 5 and 10 mg/day inhaled, 14 days, IPF, N = 18
  TEAE: COVID-19: 1 (5.6) n (%)
[2]
  change in LCQ total score during the treatment period: No clinically significant changes
  change in cough VAS during the treatment period: No clinically significant changes
